Assay: molar heat capacity at saturation pressure
Conditions: Small (less than 1 g) adiabatic calorimetry

CCCCn1cc[n+](C)c1.O=[N+]([O-])[O-] [1-butyl-3-methylimidazolium nitrate]
Conditions | molar heat capacity [J/K/mol]
223.56 K, Crystal 4 | 239.25
224.66 K, Crystal 4 | 240.26
225.64 K, Crystal 4 | 241.27
226.74 K, Crystal 4 | 242.07
227.72 K, Crystal 4 | 243.28
228.81 K, Crystal 4 | 244.08
229.79 K, Crystal 4 | 245.29
230.88 K, Crystal 4 | 246.1
231.86 K, Crystal 4 | 247.3
232.95 K, Crystal 4 | 248.31
233.92 K, Crystal 4 | 249.32
235.01 K, Crystal 4 | 250.32
235.97 K, Crystal 4 | 251.53
237.06 K, Crystal 4 | 252.54
238.03 K, Crystal 4 | 253.54
239.1 K, Crystal 4 | 254.75
239.2 K, Crystal 4 | 254.95
240.07 K, Crystal 4 | 255.55
241.14 K, Crystal 4 | 256.96
241.7 K, Crystal 4 | 257.57
242.11 K, Crystal 4 | 257.77
243.17 K, Crystal 4 | 259.18
244.08 K, Crystal 4 | 260.18
244.15 K, Crystal 4 | 259.98
245.2 K, Crystal 4 | 261.39
246.17 K, Crystal 4 | 262.6
246.45 K, Crystal 4 | 262.8
247.22 K, Crystal 4 | 263.8
248.19 K, Crystal 4 | 265.01
248.81 K, Crystal 4 | 265.61
249.23 K, Crystal 4 | 266.42
250.2 K, Crystal 4 | 267.63
251.15 K, Crystal 4 | 268.43
251.23 K, Crystal 4 | 269.04
252.21 K, Crystal 4 | 270.04
253.23 K, Crystal 4 | 271.45
253.48 K, Crystal 4 | 271.45
254.2 K, Crystal 4 | 272.66
255.22 K, Crystal 4 | 274.27
255.8 K, Crystal 4 | 274.87
256.19 K, Crystal 4 | 275.68
257.2 K, Crystal 4 | 277.29
258.1 K, Crystal 4 | 278.49
258.18 K, Crystal 4 | 278.49
259.18 K, Crystal 4 | 280.3
260.15 K, Crystal 4 | 281.51
260.4 K, Crystal 4 | 282.11
261.14 K, Crystal 4 | 283.32
262.11 K, Crystal 4 | 284.53
262.67 K, Crystal 4 | 286.14
263.1 K, Crystal 4 | 286.54
264.07 K, Crystal 4 | 287.95
264.94 K, Crystal 4 | 289.96
265.05 K, Crystal 4 | 289.56
266.02 K, Crystal 4 | 291.37
267 K, Crystal 4 | 293.79
267.19 K, Crystal 4 | 294.19
267.95 K, Crystal 4 | 295.4
268.93 K, Crystal 4 | 297.81
269.43 K, Crystal 4 | 299.02
269.88 K, Crystal 4 | 299.82
270.85 K, Crystal 4 | 302.44
271.65 K, Crystal 4 | 304.85
271.78 K, Crystal 4 | 304.65
271.8 K, Liquid | 345.1
272.76 K, Crystal 4 | 307.47
273.68 K, Crystal 4 | 310.69
273.85 K, Crystal 4 | 312.1
274.46 K, Liquid | 345.9
274.66 K, Crystal 4 | 313.71
275.56 K, Crystal 4 | 318.94
276.02 K, Crystal 4 | 318.54
276.35 K, Crystal 4 | 310.08
277.02 K, Liquid | 346.71
277.33 K, Crystal 4 | 355.76
277.73 K, Crystal 4 | 345.5
277.82 K, Crystal 4 | 609.71
278.14 K, Crystal 4 | 322.56
278.16 K, Crystal 4 | 408.68
278.25 K, Crystal 4 | 455.57
278.82 K, Crystal 3 | 545.72
279.03 K, Crystal 3 | 470.06
279.41 K, Liquid | 347.51
279.47 K, Crystal 3 | 414.92
279.88 K, Crystal 3 | 382.53
280.31 K, Crystal 3 | 308.07
280.95 K, Crystal 3 | 310.08
281.81 K, Liquid | 348.32
281.84 K, Crystal 3 | 313.91
281.86 K, Crystal 3 | 314.31
282.47 K, Crystal 3 | 319.54
283.34 K, Crystal 3 | 324.98
283.95 K, Crystal 3 | 333.43
284.03 K, Crystal 3 | 333.23
284.21 K, Liquid | 349.12
284.81 K, Crystal 3 | 341.48
285.42 K, Crystal 3 | 355.56
286.1 K, Crystal 3 | 372.26
286.25 K, Crystal 3 | 363.41
286.61 K, Liquid | 349.93
286.8 K, Crystal 3 | 390.78
287.64 K, Crystal 3 | 372.26
288.03 K, Crystal 3 | 432.83
288.12 K, Crystal 2 | 417.54
289.01 K, Liquid | 350.73
289.03 K, Crystal 2 | 359.38
289.45 K, Crystal 2 | 366.43
289.95 K, Crystal 2 | 362.2
290.42 K, Crystal 2 | 367.43
290.84 K, Crystal 2 | 370.25
291.41 K, Liquid | 351.54
291.75 K, Crystal 2 | 425.39
291.98 K, Crystal 2 | 378.5
292.18 K, Crystal 2 | 416.33
293 K, Crystal 1 | 432.03
293.5 K, Crystal 1 | 380.51
293.81 K, Liquid | 352.34
293.98 K, Crystal 1 | 378.1
294.33 K, Crystal 1 | 377.9
294.87 K, Crystal 1 | 383.53
295.97 K, Crystal 1 | 397.01
296.14 K, Crystal 1 | 399.03
296.21 K, Liquid | 353.15
296.66 K, Crystal 1 | 410.29
297.89 K, Crystal 1 | 432.63
298.32 K, Crystal 1 | 442.09
298.61 K, Liquid | 353.95
298.79 K, Crystal 1 | 458.19
299.7 K, Crystal 1 | 486.36
300.51 K, Crystal 1 | 519.76
300.77 K, Crystal 1 | 538.67
301.01 K, Liquid | 354.76
301.36 K, Crystal 1 | 572.08
302.38 K, Crystal 1 | 652.97
302.52 K, Crystal 1 | 675.3
302.83 K, Crystal 1 | 708.51
303.42 K, Liquid | 355.76
303.87 K, Crystal 1 | 876.13
303.98 K, Crystal 1 | 909.13
304.08 K, Crystal 1 | 926.83
305.82 K, Liquid | 356.57
308.22 K, Liquid | 357.37
310.14 K, Liquid | 358.38
310.4 K, Liquid | 358.58
310.62 K, Liquid | 358.38
311.19 K, Liquid | 358.58
312.54 K, Liquid | 359.18
313.02 K, Liquid | 358.98
313.34 K, Liquid | 359.18
314.75 K, Liquid | 359.99
315.42 K, Liquid | 360.19
315.54 K, Liquid | 359.99
316.76 K, Liquid | 360.59
317.74 K, Liquid | 360.99
317.82 K, Liquid | 360.99
318.76 K, Liquid | 361.6
319.94 K, Liquid | 361.8
320.21 K, Liquid | 362
320.76 K, Liquid | 362.4
322.14 K, Liquid | 362.81
322.61 K, Liquid | 363.01
322.77 K, Liquid | 363.41
324.34 K, Liquid | 363.61
324.77 K, Liquid | 364.01
325.01 K, Liquid | 363.81
326.54 K, Liquid | 364.62
326.77 K, Liquid | 364.62
327.41 K, Liquid | 365.02
328.73 K, Liquid | 365.22
328.78 K, Liquid | 365.42
329.81 K, Liquid | 365.82
330.78 K, Liquid | 366.43
330.93 K, Liquid | 366.23
332.2 K, Liquid | 366.83
332.78 K, Liquid | 367.23
333.12 K, Liquid | 367.03
334.6 K, Liquid | 367.84
334.78 K, Liquid | 368.24
335.32 K, Liquid | 367.84
336.78 K, Liquid | 368.84
336.99 K, Liquid | 368.64
337.51 K, Liquid | 369.04
338.78 K, Liquid | 369.65
339.71 K, Liquid | 369.65
340.78 K, Liquid | 370.45
341.9 K, Liquid | 370.45
342.78 K, Liquid | 371.46
344.09 K, Liquid | 371.46
344.78 K, Liquid | 372.26
346.29 K, Liquid | 372.46
346.78 K, Liquid | 373.27
348.48 K, Liquid | 373.47
348.78 K, Liquid | 374.07
350.68 K, Liquid | 374.28
350.78 K, Liquid | 374.88
352.78 K, Liquid | 375.68
352.87 K, Liquid | 375.48
354.78 K, Liquid | 376.69
355.06 K, Liquid | 376.29
356.78 K, Liquid | 377.7
357.25 K, Liquid | 377.49
358.78 K, Liquid | 378.3
359.44 K, Liquid | 378.3
360.77 K, Liquid | 379.31
361.63 K, Liquid | 379.31
363.82 K, Liquid | 380.11
366.01 K, Liquid | 381.12
368.19 K, Liquid | 382.32

Source: the NIST ThermoML archive (doi:10.1016/j.tca.2008.05.002)
